Source: patent publication US10759817B2, “Gadolinium complex, method for synthesis of the gadolinium complex, and MRI contrast agent including the gadolinium complex” (Kyungpook National University Industry-Academic Cooperation …, priority 2018, dated 2020)

Test: Relaxibity (r1, r2) measurement by MRI at 1.5 T and 9.4 T
Format: physicochemical
Text: In accordance with the present disclosure, the relaxibity (unit mM^−1 s^−1) is obtained using an inversion recovery according to the inversion time (T1). More specifically, signal intensities at varying inversion times T1 are acquired. Then, the signal intensities are subjected to a minimum non-linear fitting (NLF) to obtain the relaxation time (s). Then, the relaxibity (unit mM^−1 s^−1) is obtained using the relaxation time (s) and the concentration (mM) of the contrast agent. The gadolinium complex represented by the Chemical Formula 1 has the relaxibity defined as above which is at least 4 mM^−1 s^−1 not only in the normal magnetic field range of 1.5 T but also in the high magnetic field of 7 T or greater.
The relaxibity for the gadolinium complex GdL^b as obtained above was measured at magnetic field strengths of 1.5 T and 9.4 T respectively as follows.
T1 relaxation time was checked using inversion recovery according to various T1 (inversion times). […] The T2 relaxation time is determined as follows. […] For TEs, mean values of pixels for various spin-echo measurements were calculated using a nonlinear fitting method. Then, the T2 relaxation time was calculated using the spin-echo measurements. The relaxibity (mM^−1s^−1) was calculated as an inverse of a relaxation time (s) for the contrast agent 1 mM. We calculated r1 using the T1 relaxation time and r2 using the T2 relaxation time. […]

O=C([O-])CN1CCN(CC(=O)[O-])CCN([C@H](CO)[C@H](O)CO)CCN(CC(=O)[O-])CC1.[Gd+3] (racemic) [Gadovist ®, gadobutrol]
Relaxibity r1 (magnetic field 1.5 T): 4.06 mM⁻¹ s⁻¹
Relaxibity r1 (magnetic field 9.4 T): 2.96 mM⁻¹ s⁻¹
